Reference: patent publication EP0014295B1, “Benzodioxan derivatives, process for their preparation and their therapeutical applications” (Bouchara, Emile Dr., priority 1979, dated 1980)

Assays:
[1] = system: pression artérielle de l'animal normotendu anesthésié; experiment: Effect on arterial pressure of the anaesthetised normotensive animal, intravenous (dog); format: in vivo; conditions: chien normotendu anesthésié, voie intraveineuse
Source text: (§1) a) Effet sur la pression artérielle de l'animal normotendu anesthésié.
(§2) L'étude a été conduite chez le rat, le lapin et le chien. Le composé de l'exemple 2 a été administré par voie intraveineuse. Les différents paramètres enregistrés ont été les pressions artérielles systoliques, diastoliques et moyennes, la fréquence cardiaque, la vitesse d'éjection systolique (dp/dt). La force de contraction cardiaque, les débits artériel et veineux ont été enregistrés chez le chien uniquement.

[2] = system: pression artérielle de l'animal hypertendu non anesthésié; experiment: Effect on arterial pressure of the non-anaesthetised hypertensive animal, oral (dog); format: in vivo, chien
Source text: (§3) b) Effet sur la pression artérielle de l'animal hypertendu non anesthésié.
(§4) L'étude a été conduite chez le rat et chez le chien. On a utilisé, d'une part, des animaux (rats) présentant une hypertension expérimentale induite par ligature de l'aorte abdominale entre les deux artères rénales et, d'autre part, des animaux (rats et chiens) porteurs d'hypertension spontanée.
(§5) Le composé de l'exemple 2 a été administré par voie orale soit en prise unique pour connaître la cinétique d'action du produit, soit en traitement prolongé.

[3] = system: pression artérielle de l'animal hypertendu non anesthésié; experiment: Effect on arterial pressure of the non-anaesthetised hypertensive animal, oral (rat); format: in vivo
Source text: as §3, §4, §5

[4] = system: pression artérielle de l'animal normotendu anesthésié; experiment: Effect on arterial pressure of the anaesthetised normotensive animal, intravenous (rabbit); format: in vivo; conditions: lapin normotendu anesthésié, voie intraveineuse, dès la dose de 0,250 mg/kg; proportionnelle aux doses en intensité et en durée
Source text: as §1, §2

système nerveux central = experiment: Effects on the central nervous system, oral; format: in vivo; conditions: souris, voie orale, doses provoquant une activité antihypertensive chez le rat
Source text: Ces effets centraux sont peut-être directement liés à l'action hypotensive

[5] = system: pression artérielle de l'animal normotendu anesthésié; experiment: Effect on arterial pressure of the anaesthetised normotensive animal, intravenous (rat); format: in vivo; conditions: voie intraveineuse
Source text: as §1, §2

Acute toxicity, oral = conditions: mouse, in vivo, souris, per os, read-out: Dose léthale 50 approchée mg/kg per os
Source text: La toxicité a été déterminée chez la souris par voie orale. Les résultats sont donnés dans le tableau III.

rats = experiment: Chronic toxicity, mixed with food for 45 days; format: in vivo; conditions: 75 mg/kg/jour, mélangé à la nourriture, 45 jours
Source text: Le composé de l'exemple 2, mélangé à la nourriture, a été administré 45 jours de suite à des rats.

[6] = dès la dose de 0,250 mg/kg, proportionnelle aux doses en intensité et en durée

For `O=C(c1ccc(F)cc1)C1CCN(CC2COc3ccccc3O2)CC1` (centres unmarked) [Exemple 2, Chlorhydratede la 1-[(2,3-dihydro-4H-1,4-benzodioxin)-2-ylméthyl]-4-(4-fluorobenzoyl) pipéridine], the “pression artérielle” value [1, 6] was “chute tensionnelle systo- diastolique très rapide”, the “dp/dt (vitesse d'éjection systolique)” value ([1]; parallèlement à l'hypotension) was “augmentation” and the “débits artériel et veineux” value ([1]; parallèlement à l'hypotension) was “augmentation”. The “force de contraction cardiaque” value ([1]; parallèlement à l'hypotension) was “augmentation”, the “Diminution de la pression artérielle en mm de mercure Chez le chien” value ([2]; 10 mg/kg P.O., 20mn) was 10±4 mm de mercure and the “Diminution de la pression artérielle en mm de mercure Chez le chien” value ([2]; 10 mg/kg P.O., 40mn) was 10±4 mm de mercure. For the same molecule, the “Diminution de la pression artérielle en mm de mercure Chez le chien” value ([2]; 10 mg/kg P.O., 1h) was 18±3 mm de mercure, the “Diminution de la pression artérielle en mm de mercure Chez le chien” value ([2]; 10 mg/kg P.O., 2h) was 11±1 mm de mercure and the “Diminution de la pression artérielle en mm de mercure Chez le chien” value ([2]; 10 mg/kg P.O., 5h) was 4±3 mm de mercure. The “Diminution de la pression artérielle en mm de mercure Chez le chien” value ([2]; 10 mg/kg P.O., 7h) was 1±2 mm de mercure, the “Diminution de la pression artérielle en mm de mercure Chez le chien” value ([2]; 10 mg/kg P.O., 24h) was 0±1 mm de mercure and the “Diminution de la pression artérielle en mm de mercure Chez le chien” value ([2]; 20 mg/kg P.O., 20mn) was 12±4 mm de mercure. For the same molecule, the “Diminution de la pression artérielle en mm de mercure Chez le chien” value ([2]; 20 mg/kg P.O., 40mn) was 26±3 mm de mercure, the “Diminution de la pression artérielle en mm de mercure Chez le chien” value ([2]; 20 mg/kg P.O., 1h) was 38±2 mm de mercure and the “Diminution de la pression artérielle en mm de mercure Chez le chien” value ([2]; 20 mg/kg P.O., 2h) was 37±3 mm de mercure. The “Diminution de la pression artérielle en mm de mercure Chez le chien” value ([2]; 20 mg/kg P.O., 5h) was 18±7 mm de mercure, the “Diminution de la pression artérielle en mm de mercure Chez le chien” value ([2]; 20 mg/kg P.O., 7h) was 8±1 mm de mercure and the “Diminution de la pression artérielle en mm de mercure Chez le chien” value ([2]; 20 mg/kg P.O., 24h) was 2±3 mm de mercure. The “Diminution de la pression artérielle en mm de mercure Chez le chien” value ([2]; 50 mg/kg P.O., 20mn) was 21±9 mm de mercure, the “Diminution de la pression artérielle en mm de mercure Chez le chien” value ([2]; 50 mg/kg P.O., 40mn) was 31±6 mm de mercure and the “Diminution de la pression artérielle en mm de mercure Chez le chien” value ([2]; 50 mg/kg P.O., 1h) was 40±8 mm de mercure. The “Diminution de la pression artérielle en mm de mercure Chez le chien” value ([2]; 50 mg/kg P.O., 2h) was 46±3 mm de mercure, the “Diminution de la pression artérielle en mm de mercure Chez le chien” value ([2]; 50 mg/kg P.O., 5h) was 28±8 mm de mercure and the “Diminution de la pression artérielle en mm de mercure Chez le chien” value ([2]; 50 mg/kg P.O., 7h) was 22±6 mm de mercure. For the same molecule, the “Diminution de la pression artérielle en mm de mercure Chez le chien” value ([2]; 50 mg/kg P.O., 24h) was 1±2 mm de mercure, the action antihypertensive ([2]; chien hypertendu, voie orale, prise unique ou traitement prolongé, augmentant avec les doses jusqu'à un plafond) was “action antihypertensive nette, prolongée” and the “effet antihypertenseur après arrêt du traitement” value ([2]; chien, après arrêt du traitement, retour progressif à la normale) was “persistance de l'effat antihypertenseur”. For the same molecule, the “Diminution de la pression artérielle en mm de mercure Chez le rat” value ([3]; 10 mg/kg P.O., 10mn) was 39±11 mm de mercure, the “Diminution de la pression artérielle en mm de mercure Chez le rat” value ([3]; 10 mg/kg P.O., 30mn) was 45±10 mm de mercure and the “Diminution de la pression artérielle en mm de mercure Chez le rat” value ([3]; 10 mg/kg P.O., 1h) was 33±9 mm de mercure. For the same molecule, the “Diminution de la pression artérielle en mm de mercure Chez le rat” value ([3]; 10 mg/kg P.O., 2h) was 20±6 mm de mercure, the “Diminution de la pression artérielle en mm de mercure Chez le rat” value ([3]; 10 mg/kg P.O., 6h) was 6±3 mm de mercure and the “Diminution de la pression artérielle en mm de mercure Chez le rat” value ([3]; 20 mg/kg P.O., 10mn) was 66±8 mm de mercure. For the same molecule, the “Diminution de la pression artérielle en mm de mercure Chez le rat” value ([3]; 20 mg/kg P.O., 30mn) was 63±6 mm de mercure, the “Diminution de la pression artérielle en mm de mercure Chez le rat” value ([3]; 20 mg/kg P.O., 1h) was 49±7 mm de mercure and the “Diminution de la pression artérielle en mm de mercure Chez le rat” value ([3]; 20 mg/kg P.O., 2h) was 37±7 mm de mercure. The “Diminution de la pression artérielle en mm de mercure Chez le rat” value ([3]; 20 mg/kg P.O., 6h) was 29±6 mm de mercure, the “Diminution de la pression artérielle en mm de mercure Chez le rat” value ([3]; 20 mg/kg P.O., 12h) was 17±7 mm de mercure and the “Diminution de la pression artérielle en mm de mercure Chez le rat” value ([3]; 20 mg/kg P.O., 18h) was 8±4 mm de mercure. The “Diminution de la pression artérielle en mm de mercure Chez le rat” value ([3]; 20 mg/kg P.O., 24h) was 3±3 mm de mercure, the “Diminution de la pression artérielle en mm de mercure Chez le rat” value ([3]; 50 mg/kg P.O., 10mn) was 68±6 mm de mercure and the “Diminution de la pression artérielle en mm de mercure Chez le rat” value ([3]; 50 mg/kg P.O., 30mn) was 68±5 mm de mercure. The “Diminution de la pression artérielle en mm de mercure Chez le rat” value ([3]; 50 mg/kg P.O., 1h) was 52±6 mm de mercure, the “Diminution de la pression artérielle en mm de mercure Chez le rat” value ([3]; 50 mg/kg P.O., 2h) was 38±7 mm de mercure and the “Diminution de la pression artérielle en mm de mercure Chez le rat” value ([3]; 50 mg/kg P.O., 6h) was 32±8 mm de mercure. The “Diminution de la pression artérielle en mm de mercure Chez le rat” value ([3]; 50 mg/kg P.O., 12h) was 16±7 mm de mercure, the “Diminution de la pression artérielle en mm de mercure Chez le rat” value ([3]; 50 mg/kg P.O., 18h) was 8±5 mm de mercure and the “Diminution de la pression artérielle en mm de mercure Chez le rat” value ([3]; 50 mg/kg P.O., 24h) was 5±5 mm de mercure. For the same molecule, the action antihypertensive ([3]; rat hypertendu, voie orale, prise unique ou traitement prolongé, augmentant avec les doses jusqu'à un plafond) was “action antihypertensive nette, prolongée”, the “pression artérielle” value [4] was “chute tensionnelle systo- diastolique très rapide” and the agressivité (système nerveux central) was “diminution”. The “sommeil expérimental” value (système nerveux central) was “potentialisation”, the sédation (système nerveux central) was “sédation générale” and the fréquence cardiaque [5] was “bradycardie”. For the same molecule, the “pression artérielle” value [5, 6] was “chute tensionnelle systo- diastolique très rapide”, the LD50 (Acute toxicity, oral) was 880 mg/kg and the “anomalie clinique, hématologique, anatomique” value (rats) was “aucune anomalie ni clinique, ni hématologique, ni anatomique”. The “taux des triglycérides” value (rats) was “chute nette et isolée”.

`COc1ccc(C(=O)C2CCN(CC3COc4ccccc4O3)CC2)cc1` (centres unmarked) [Exemple 4, Fumaratede la 1-[(2,3-dihydro-4H-1,4-benzodioxin)-2-ylméthyl]-4-(4-méthoxybenzoyl) pipéridine] gave an LD50 (Acute toxicity, oral) of 364 mg/kg.

With `O=C(c1ccc(Cl)cc1)C1CCN(CC2COc3ccccc3O2)CC1` (centres unmarked) [Exemple 6, Chlorhydratede la 1-[(2,3-dihydro-4H-1 ,4-benzodioxine)-2-ylméthyl]-4-(4-chlorobenzoyl) pipéridine] the LD50 (Acute toxicity, oral) was 880 mg/kg.

`O=C(c1ccc(O)cc1)C1CCN(CC2COc3ccccc3O2)CC1` (centres unmarked) [Exemple 7, 1-[(2,3-Dihydro-4H-1,4-benzodioxin)-2-ylméthyl]-4-(4-hydroxy-benzoyl) pipéridine] gave an LD50 (Acute toxicity, oral) of 440 mg/kg.

`O=C(Oc1ccc(C(=O)C2CCN(CC3COc4ccccc4O3)CC2)cc1)c1cccnc1` (centres unmarked) [Exemple 8, Nicotinatede la 1-[(2,3-dihydro-4H-1,4-benzodioxin)-2-ylméthyl]-4-(4-hydroxybenzoyl) pipéridine] gave an LD50 (Acute toxicity, oral) greater than 3200 mg/kg.

In the case of `O=C(c1ccccc1)C1CCN(CC2COc3ccccc3O2)CC1` (centres unmarked) [Exemple 9, Ghlorhydratede la 1-[(2,3-dihydro-4H-1,4-benzodioxin)-2-ylméthyl]-4-benzoyl pipéridine], the LD50 (Acute toxicity, oral) is reported as 2400 mg/kg.

For `Cc1ccc(C(=O)C2CCN(CC3COc4ccccc4O3)CC2)cc1` (centres unmarked) [Exemple 10], the LD50 (Acute toxicity, oral) was 1460 mg/kg.

`CCc1ccc(C(=O)C2CCN(CC3COc4ccccc4O3)CC2)cc1` (centres unmarked) [Exemple 11, Chlorhydratede la 1-[(2,3-dihydro-4H-1,4-benzodioxin)-2-ylméthyl]-4-(4-éthylbenzoyl) pipéridine] gave an LD50 (Acute toxicity, oral) of 1200 mg/kg.
